Test results published in ChEMBL document CHEMBL2331164, “Aspulvinones from a mangrove rhizosphere soil-derived fungus Aspergillus terreus Gwq-48 with anti-influenza A viral (H1N1) activity” (Bioorg Med Chem Lett, 2013).
Converted amounts (≈) assume the structure as drawn.

Experiments:
[1] = Cytotoxicity against human A549 cells assessed as cell viability after 72 hrs by MTT assay; format: cell-based
[2] = Cytotoxicity against MDCK cells assessed as cell viability after 72 hrs by MTT assay; format: cell-based, Canis lupus familiaris; details: dog
Influenza A virus = experiment: microbe, parasite or virus in culture; details: A/Puerto Rico/8/1934(H1N1), MDCK, 48 h
[3] = biological target: Neuraminidase (Influenza A virus (A/Puerto Rico/8/1934(H1N1))) (UniProt P03468); experiment: Inhibition of inactivated Influenza A virus (A/Puerto Rico/8/1934(H1N1)) neuraminidase using MUNANA as substrate at 100 ug/mL incubated for 60 mins prior to substrate addition measured after 45 mins by fluorescence assay relative to control
[4] = biological target: Neuraminidase (Influenza A virus (A/Puerto Rico/8/1934(H1N1))) (UniProt P03468); experiment: (§1) Inhibition of inactivated Influenza A virus (A/Puerto Rico/8/1934(H1N1)) neuraminidase using MUNANA as substrate incubated for 60 mins prior to substrate addition measured after 45 mins by fluorescence assay
[5] = biological target: Neuraminidase (Influenza A virus (A/Puerto Rico/8/1934(H1N1)), UniProt P03468); experiment: as §1
Sequence of Neuraminidase (Influenza A virus (A/Puerto Rico/8/1934(H1N1)), UniProt P03468) (P03468 whole entry): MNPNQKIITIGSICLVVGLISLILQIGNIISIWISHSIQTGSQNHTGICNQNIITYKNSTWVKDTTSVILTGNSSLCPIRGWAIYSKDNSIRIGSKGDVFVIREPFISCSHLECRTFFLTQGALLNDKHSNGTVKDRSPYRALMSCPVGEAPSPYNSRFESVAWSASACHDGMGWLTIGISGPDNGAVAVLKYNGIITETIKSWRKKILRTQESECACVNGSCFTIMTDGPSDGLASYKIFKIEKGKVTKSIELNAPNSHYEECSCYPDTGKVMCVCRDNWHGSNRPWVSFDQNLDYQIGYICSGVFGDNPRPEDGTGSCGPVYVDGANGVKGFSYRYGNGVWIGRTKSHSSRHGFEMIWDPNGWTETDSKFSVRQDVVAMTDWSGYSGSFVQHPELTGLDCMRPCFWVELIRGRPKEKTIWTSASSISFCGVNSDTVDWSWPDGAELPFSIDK

Sequence of Neuraminidase (Influenza A virus (A/Puerto Rico/8/1934(H1N1))) (P03468 whole entry): as above

Row | SMILES | CC50 at 72 h [1] [µg/mL] | CC50 at 72 h [2] [µg/mL] | IC50 (Influenza A virus) [µg/mL] | inhibition [3] [%] | inhibition [4] | IC50 [5] [µM]
1 | O=C1O/C(=C(/C(=O)O)c2ccccc2)C(O)=C1c1ccccc1 [PULVIC ACID] | > 250 | > 250 | 29.1 (≈ 94.4 µM) | – | – | –
2 | O=C1O/C(=C\c2ccc(O)cc2)C(O)=C1c1ccc(O)cc1 [ASPULVINONE E] | > 250 | > 250 | 56.9 (≈ 192 µM) | – | – | –
3 | O=C1O/C(=C/c2ccc(O)cc2)C(O)=C1c1ccc(O)cc1 [ISOASPULVINONE E] | > 250 | > 250 | 32.3 (≈ 109 µM) | 60 | Dose-dependent effect | 210
4 | CC(=O)N[C@H]1[C@H]([C@H](O)[C@H](O)CO)OC(C(=O)O)=C[C@@H]1NC(=N)N [ZANAMIVIR] | – | – | 0.0284 (≈ 0.0855 µM) | – | – | –
